BindingDB's records for patent US11116760 (Gilead Sciences, 2021)

Biological target: T1, Integrin alpha-4/beta-7 (Homo sapiens, UniProt P13612+P26010)
T1 sequence (P13612 whole entry): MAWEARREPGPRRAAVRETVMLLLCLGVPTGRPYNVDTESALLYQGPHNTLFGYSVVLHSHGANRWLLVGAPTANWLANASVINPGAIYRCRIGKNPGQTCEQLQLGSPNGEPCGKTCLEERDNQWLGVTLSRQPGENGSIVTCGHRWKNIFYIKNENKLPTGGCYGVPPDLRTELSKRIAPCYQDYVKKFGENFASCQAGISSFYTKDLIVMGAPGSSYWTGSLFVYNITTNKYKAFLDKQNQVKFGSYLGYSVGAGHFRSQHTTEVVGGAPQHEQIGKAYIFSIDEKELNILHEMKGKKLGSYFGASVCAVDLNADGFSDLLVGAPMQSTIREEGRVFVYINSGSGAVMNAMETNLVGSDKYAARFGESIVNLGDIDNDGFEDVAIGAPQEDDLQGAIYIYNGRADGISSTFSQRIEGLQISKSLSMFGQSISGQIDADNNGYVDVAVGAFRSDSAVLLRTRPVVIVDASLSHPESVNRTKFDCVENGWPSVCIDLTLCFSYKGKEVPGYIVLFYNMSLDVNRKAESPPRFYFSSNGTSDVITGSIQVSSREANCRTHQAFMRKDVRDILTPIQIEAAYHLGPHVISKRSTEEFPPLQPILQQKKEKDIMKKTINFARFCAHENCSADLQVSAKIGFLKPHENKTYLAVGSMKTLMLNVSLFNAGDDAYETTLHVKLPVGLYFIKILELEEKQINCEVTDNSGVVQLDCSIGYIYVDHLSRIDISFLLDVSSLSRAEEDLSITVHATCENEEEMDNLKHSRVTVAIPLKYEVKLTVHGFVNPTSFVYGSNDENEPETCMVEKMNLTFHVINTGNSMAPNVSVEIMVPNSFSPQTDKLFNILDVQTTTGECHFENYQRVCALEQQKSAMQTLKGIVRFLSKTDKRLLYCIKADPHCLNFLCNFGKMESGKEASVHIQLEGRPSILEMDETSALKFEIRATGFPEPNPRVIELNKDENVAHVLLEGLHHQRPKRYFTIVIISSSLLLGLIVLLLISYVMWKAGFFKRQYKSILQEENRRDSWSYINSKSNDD
T1 sequence (P26010 whole entry): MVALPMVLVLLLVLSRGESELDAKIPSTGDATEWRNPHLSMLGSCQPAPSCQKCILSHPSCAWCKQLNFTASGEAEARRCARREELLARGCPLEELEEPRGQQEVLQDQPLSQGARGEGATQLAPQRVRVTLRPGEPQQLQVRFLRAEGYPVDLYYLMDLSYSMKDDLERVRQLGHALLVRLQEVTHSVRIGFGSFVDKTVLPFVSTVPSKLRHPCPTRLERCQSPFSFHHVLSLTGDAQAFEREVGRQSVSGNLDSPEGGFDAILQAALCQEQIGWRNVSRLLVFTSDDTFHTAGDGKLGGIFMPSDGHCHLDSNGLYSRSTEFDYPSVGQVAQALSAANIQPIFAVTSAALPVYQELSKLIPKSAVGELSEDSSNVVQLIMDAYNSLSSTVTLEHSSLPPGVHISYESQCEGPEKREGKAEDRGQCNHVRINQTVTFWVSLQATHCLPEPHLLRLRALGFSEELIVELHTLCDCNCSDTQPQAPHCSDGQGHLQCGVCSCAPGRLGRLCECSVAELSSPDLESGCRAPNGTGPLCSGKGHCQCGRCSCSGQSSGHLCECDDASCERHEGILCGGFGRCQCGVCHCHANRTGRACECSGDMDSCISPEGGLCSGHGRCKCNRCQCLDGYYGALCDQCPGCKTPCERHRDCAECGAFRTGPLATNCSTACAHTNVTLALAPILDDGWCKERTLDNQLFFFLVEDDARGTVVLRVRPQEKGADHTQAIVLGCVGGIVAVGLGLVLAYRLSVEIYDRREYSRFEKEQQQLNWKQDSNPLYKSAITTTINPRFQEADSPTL
Assay: alpha-4 beta-7 Integrin Cell Capture Assay
Procedure: The potency of inhibitors in preventing α4β7 integrin interaction with MadCAM-1 was measured by monitoring the capture of α4β7 integrin expressing cells on a recombinant MadCAM-1 extracellular domain-coated plate. 384-Well plates (Corning 3702) were coated with MadCAM-1 extracellular domain by dispensing 20 μL of MAdCAM-1 at 1.0 μg/mL per well and incubating overnight at 4° C. The plates were then washed with PBS and blocked with 3% BSA for 2 hours before being washed again.

EC50 [nM]	SMILES
26.5	N#Cc1ccc(-c2ccc(C[C@H](NC(=O)c3c(F)cc(N[C@H](C4CCOCC4)C(F)(F)F)cc3F)C(=O)O)c3cccnc23)c(Cl)c1 [US11116760, Example 338]
35.2	N#Cc1ccc(-c2ccc(C[C@H](NC(=O)c3c(F)cc(NC(C4CCOCC4)C(F)(F)F)cc3F)C(=O)O)c3cccnc23)c(Cl)c1 (stereo partly drawn) [US11116760, Example 247]
5.5	Nc1ccc(C(F)(F)F)c(-c2ccc(C[C@H](NC(=O)c3c(Cl)cccc3Cl)C(=O)O)c3cccnc23)n1 [US11116760, Example 72]
28.6	N#Cc1ccc(-c2ccc(C[C@H](NC(=O)c3c(F)cc(NC4COC4)cc3F)C(=O)O)c3cccnc23)c(Cl)c1 [US11116760, Example 214]
51.7	CC1(Nc2cc(F)c(C(=O)N[C@@H](Cc3ccc(-c4ccc(C#N)cc4Cl)c4ncccc34)C(=O)O)c(F)c2)COC1 [US11116760, Example 152]
33.6	N#Cc1ccc(-c2ccc(C[C@H](NC(=O)c3c(F)cc(N4CCOC(C(F)(F)F)C4)cc3F)C(=O)O)c3cccnc23)c(Cl)c1 (stereo partly drawn) [US11116760, Example 245]
0.14	Cc1nc(-c2ccc(C[C@H](NC(=O)c3c(F)cc(N4CCOC[C@@H]4C(F)(F)F)cc3Cl)C(=O)O)c3cccnc23)c(=O)n(C)c1C [US11116760, Example 454]
0.4	CCOCc1cc(OC)c(-c2ccc(C[C@H](NC(=O)c3c(F)cc(NS(=O)(=O)c4ccc(-c5ccnc(F)c5)cc4)cc3F)C(=O)O)c3cccnc23)c(OC)c1 [US11116760, Example 50]
72.2	N#Cc1ccc(-c2ccc(C[C@H](NC(=O)c3ccc4[nH]ccc4c3Cl)C(=O)O)c3cccnc23)c(Cl)c1 [US11116760, Example 266]
0.8	CC[C@@H](Nc1cc(F)c(C(=O)N[C@@H](Cc2cc(F)c(-c3c(OC)cc(C)n(C)c3=O)c3ncccc23)C(=O)O)c(F)c1)C(F)(F)F [US11116760, Example 138]
9.3	O=C(N[C@@H](Cc1ccc(-c2ccc(F)c3cccnc23)c2ncccc12)C(=O)O)c1c(F)cccc1F [US11116760, Example 15]
3.2	Cc1cnc(-c2ccc(C[C@H](NC(=O)c3c(F)cc(N4CCOC[C@@H]4C(F)(F)F)cc3F)C(=O)O)c3cccnc23)nc1C [US11116760, Example 97]
36.7	N#Cc1ccc(-c2ccc(C[C@H](NC(=O)c3c(Cl)ccc(F)c3F)C(=O)O)c3cccnc23)c(Cl)c1 [US11116760, Example 17]
88.6	N#Cc1ccc(-c2ccc(C[C@H](NC(=O)c3c(F)cc(NC(=O)c4ccccc4)cc3F)C(=O)O)c3cccnc23)c(Cl)c1 [US11116760, Example 169]
60.5	CC(O)c1cc(F)c(C(=O)N[C@@H](Cc2ccc(-c3ccc(C#N)cc3Cl)c3ncccc23)C(=O)O)c(F)c1 (stereo partly drawn) [US11116760, Example 33]
81.5	N#Cc1ccc(-c2ccc(C[C@H](NC(=O)c3c(F)cc(N[C@H]4CCC4(F)F)cc3F)C(=O)O)c3cccnc23)c(Cl)c1 [US11116760, Example 173]
3.1	Cc1c(C)c(C)n(C)c(=O)c1-c1ccc(C[C@H](NC(=O)c2c(F)cc(N3CCOC[C@H]3C(F)(F)F)cc2F)C(=O)O)c2cccnc12 [US11116760, Example 251]
11.9	CC[C@@H](Nc1cc(F)c(C(=O)N[C@@H](Cc2ccc(-c3ncc(C)c(C)n3)c3ncccc23)C(=O)O)c(F)c1)C(F)(F)F [US11116760, Example 309]
11.7	C[C@H]1CN(c2cc(F)c(C(=O)N[C@@H](Cc3ccc(-c4ccc(C#N)cc4Cl)c4ncccc34)C(=O)O)c(F)c2)CCO1 [US11116760, Example 84]

EC50 [nM]	SMILES
19.4	C[C@@H]1CN(c2cc(F)c(C(=O)N[C@@H](Cc3ccc(-c4ccc(C#N)cc4Cl)c4ncccc34)C(=O)O)c(F)c2)CCO1 [US11116760, Example 328]
26.9	CC(C)[C@H]1COCCN1c1cc(F)c(C(=O)N[C@@H](Cc2ccc(-c3ccc(C#N)cc3Cl)c3ncccc23)C(=O)O)c(F)c1 [US11116760, Example 292]
0.4	COc1ccnc(-c2ccc(C[C@H](NC(=O)c3c(F)cc(N4CCOC[C@@H]4C(F)(F)F)cc3F)C(=O)O)c3cccnc23)c1C(F)(F)F [US11116760, Example 93]
68.8	N#Cc1ccc(-c2ccc(C[C@H](NC(=O)c3c(F)cc(N4CCO[C@@H](C(F)(F)F)C4)cc3F)C(=O)O)c3cccnc23)c(Cl)c1 [US11116760, Example 265]
8.5	COc1ccn(C)c(=O)c1-c1ccc(C[C@H](NC(=O)c2c(F)cccc2F)C(=O)O)c2cccnc12 [US11116760, Example 13]
21	O=C(N[C@@H](Cc1ccc(-c2nccc(C#CC3CC3)c2C(F)(F)F)c2ncccc12)C(=O)O)c1c(Cl)cccc1Cl [US11116760, Example 330]
4	Cc1cc(C)nc(-c2ccc(C[C@H](NC(=O)c3c(F)cc(N4CCOC[C@@H]4C(F)(F)F)cc3F)C(=O)O)c3cccnc23)n1 [US11116760, Example 261]
7.4	CC[C@@H](Nc1cc(F)c(C(=O)N[C@@H](Cc2ccc(-c3nccc(C)n3)c3ncccc23)C(=O)O)c(F)c1)C(F)(F)F [US11116760, Example 294]
21.2	O=C(N[C@@H](Cc1ccc(-c2cc(F)c(F)cc2OCC2CC2)c2ncccc12)C(=O)O)c1c(F)cccc1F [US11116760, Example 10]
0.3	Cc1cc(C(F)(F)F)c(-c2ccc(C[C@H](NC(=O)c3c(F)cc(N[C@H](C4CC4)C(F)(F)F)cc3F)C(=O)O)c3cccnc23)c(=O)n1C [US11116760, Example 155]
0.15	Cc1cc2c(=O)n(-c3ccc(C[C@H](NC(=O)c4c(F)cc(N5CCOC[C@@H]5C(F)(F)F)cc4F)C(=O)O)c4cccnc34)c(=O)n(C)c2cn1 [US11116760, Example 424]
13.4	O=C(N[C@@H](Cc1ccc(-c2nccc(C(F)(F)F)c2Cl)c2ncccc12)C(=O)O)c1c(Cl)cccc1Cl [US11116760, Example 314]
96.6	COc1cc(F)c(C(=O)N[C@@H](Cc2ccc(-c3ccc(C#N)cc3Cl)c3ncccc23)C(=O)O)c(F)c1 [US11116760, Example 21]
28.6	CC1(C)CN(c2cc(F)c(C(=O)N[C@@H](Cc3ccc(-c4ccc(C#N)cc4Cl)c4ncccc34)C(=O)O)c(F)c2)CCO1 [US11116760, Example 213]
14	Cc1ccc(C(F)(F)F)c(-c2ccc(C[C@H](NC(=O)c3c(Cl)cccc3Cl)C(=O)O)c3cccnc23)n1 [US11116760, Example 68]
10.9	CCOCc1cc(OC)c(-c2ccc(C[C@H](NC(=O)c3c(F)cc(N)cc3F)C(=O)O)c3cccnc23)c(OC)c1 [US11116760, Example 44]
30.6	N#Cc1ccc(-c2ccc(C[C@H](NC(=O)c3c(F)cc(NC4CCOCC4)cc3F)C(=O)O)c3cccnc23)c(Cl)c1 [US11116760, Example 262]
1.6	COc1c(-c2ccc(C[C@H](NC(=O)c3c(F)cccc3F)C(=O)O)c3cccnc23)c(=O)n(C)c2ccccc12 [US11116760, Example 67]

SMILES	EC50 [nM]
CC[C@@H](Nc1cc(F)c(C(=O)N[C@@H](Cc2ccc(-c3c(C(F)(F)F)c4cc(N(C)C)ccc4n(C)c3=O)c3ncccc23)C(=O)O)c(F)c1)C(F)(F)F [US11116760, Example 125]	1
